We go through 16 compounds from BindingDB's records for doi:10.1021/ja050122x (Yale University, 2005).

The structures appear in SMILES notation.

Bcl-2-like protein 1, sequence (Q07817 whole entry): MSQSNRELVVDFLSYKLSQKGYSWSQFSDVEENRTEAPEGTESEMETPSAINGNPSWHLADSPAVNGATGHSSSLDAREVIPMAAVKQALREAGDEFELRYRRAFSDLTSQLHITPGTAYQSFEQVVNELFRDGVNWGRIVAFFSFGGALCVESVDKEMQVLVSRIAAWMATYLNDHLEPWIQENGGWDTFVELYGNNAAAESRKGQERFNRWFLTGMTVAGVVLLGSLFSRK

In the test the target is Bcl-2-like protein 1 (Homo sapiens, UniProt Q07817). The test is described as follows: Fluorescence Polarization Assay. The conditions noted are these: pH 7.4; 25 °C. The protocol:
Fluorescence polarization experiments were conducted on a Photon Technology International instrument using a 0.3 cm path length cuvette. Spectra were measured at 25 deg C using 10.0 nm slit widths. Excitation at 495 nm was used for the fluorescein-containing peptide Fl-Bak and the emission maximum at 535 nm was monitored. Polarization measurements were recorded upon titration of inhibitors at varying concentrations into a solution of Fl-Bak and Bcl-xL. Regression analysis was carried out using SigmaPlot 2001 (Systat Co.) ligand binding macro module. Experimental data were fitted to determine the IC50 values, which can be related to the known affinity of the 16-mer Bak peptide (Kd =120 nM) to acquire the inhibitory constant Ki.
(Polarisation of emitted light reports the rotation of a fluorescent probe.)
Consider `CCc1cc(-c2ccc(OCC(=O)O)cc2C(C)C)ccc1-c1cccc(Cc2ccccc2)c1` [terphenyl scaffold, 28], for which the inhibitory constant (Ki) was found to be 3.27 µM. In other words, the single-digit micromolar range.
In the case of `Cc1cccc(-c2ccc(-c3ccc(OCC(=O)O)cc3C)cc2C)c1` [terphenyl scaffold, 25] it was 18.2 µM.
For `CC(C)Cc1cc(-c2ccc(-c3ccc(CCC(=O)O)cc3CC(C)C)cc2Cc2ccccc2)ccc1OCC(=O)O` [terphenyl scaffold, 16], the inhibition constant (Ki) is 1.82 µM.
`Cc1cc(OCC(=O)O)ccc1-c1ccc(-c2cccc(C(C)C)c2)c(C)c1` [terphenyl scaffold, 26] showed a Ki of 10.4 µM.
`CC(C)Cc1cc(CCC(=O)O)ccc1-c1ccc(-c2ccc(OCC(=O)O)c(Cc3cccc4ccccc34)c2)c(CC(C)C)c1` [terphenyl scaffold, 19] gave a Ki of 2.7 µM.
In turn, `CC(C)Cc1cc(-c2ccc(-c3ccc(CCC(=O)O)cc3CC(C)C)cc2Cc2ccc3ccccc3c2)ccc1OCC(=O)O` [terphenyl scaffold, 17] had a Ki of 2.5 µM. The Ki values of the last two compounds are within 1.5-fold of each other.
For the compound `CC(C)Cc1cc(OCC(=O)O)ccc1-c1ccc(-c2cccc(C(C)C)c2)c(CC(C)C)c1` [terphenyl scaffold, 27], the Ki stood at 4.82 µM.
In the case of `O=C(O)COc1ccc(-c2ccc(-c3ccccc3)cc2)cc1` [terphenyl scaffold, 30] it was more than 30 µM; in that of `CC(C)Cc1cc(-c2ccc(-c3ccc(CCC(=O)O)cc3CC(C)C)cc2C(C)C)ccc1OCC(=O)O` [terphenyl scaffold, 15], 2.09 µM.
`CC(C)Cc1cc(-c2ccc(-c3ccc(CCCN)cc3CC(C)C)cc2C(C)C)ccc1OCCN` [terphenyl scaffold, 24] returned a Ki of 13.6 µM. Against the preceding compound, the Ki is about 6.5-fold higher.
`CC(C)Cc1cc(-c2ccc(-c3ccc(CCC(=O)O)cc3CC(C)C)cc2Cc2cccc3ccccc23)ccc1OCC(=O)O` [terphenyl scaffold, 14] returned a Ki of 0.114 µM.
In turn, `CC(C)Cc1cc(CCC(=O)O)ccc1-c1ccc(-c2ccc(OCC(=O)O)c(Cc3ccccc3)c2)c(Cc2ccccc2)c1` [terphenyl scaffold, 18] came in with a Ki of 2.73 µM. This Ki is about 24-fold higher than that of the compound before.
In the case of `CCc1cc(-c2ccc(OCC(=O)O)cc2C(C)C)ccc1-c1cccc(Cc2cccc3ccccc23)c1` it was 6.88 µM; in that of `Cc1cc(CCC(=O)O)ccc1-c1cc(C)c(-c2ccc(OCC(=O)O)c(Cc3ccccc3)c2)c(C)c1` [terphenyl scaffold, 20], 2.34 µM; in that of `COC(=O)CCc1ccc(-c2ccc(-c3ccc(OCC(=O)OC)cc3)cc2)cc1` [terphenyl scaffold, 22], more than 30 µM.
In turn, `Cc1cc(CCC(=O)O)ccc1-c1cc(C)c(-c2ccc(OCC(=O)O)c(Cc3ccccc3)c2)c(CCC(=O)O)c1` [terphenyl scaffold, 21] displayed a Ki of more than 30 µM.

By Ki is commonly meant a measure of affinity in units of concentration, obtained from inhibition or displacement. A low value points to higher affinity.
